Measured values published in ChEMBL document CHEMBL5725427, “7-hydroxy-indolinyl antagonists of P2Y1 receptor” (2017).

target: P2Y purinoceptor 1 (Homo sapiens, UniProt P47900); assay: Scintillation Proximity Assay (SPA): A SPA membrane binding assay was used to identify inhibitors of [33P] […] Binding reactions were performed in 384-well OptiPlates (PerkinElmer Life Sciences, Cat #6007299) in a volume of 50 μL containing 15 fmol of P2Y1 receptor (1.7 μg of total protein), 0.3 nM [33P] […] Reactions were allowed to proceed to completion at room temperature for 1 hour followed by centrifugation of the plate for 5 min. About 40 μL of the aqueous solution was aspirated. Plates were sealed and the [33P]
Sequence (P47900 whole entry): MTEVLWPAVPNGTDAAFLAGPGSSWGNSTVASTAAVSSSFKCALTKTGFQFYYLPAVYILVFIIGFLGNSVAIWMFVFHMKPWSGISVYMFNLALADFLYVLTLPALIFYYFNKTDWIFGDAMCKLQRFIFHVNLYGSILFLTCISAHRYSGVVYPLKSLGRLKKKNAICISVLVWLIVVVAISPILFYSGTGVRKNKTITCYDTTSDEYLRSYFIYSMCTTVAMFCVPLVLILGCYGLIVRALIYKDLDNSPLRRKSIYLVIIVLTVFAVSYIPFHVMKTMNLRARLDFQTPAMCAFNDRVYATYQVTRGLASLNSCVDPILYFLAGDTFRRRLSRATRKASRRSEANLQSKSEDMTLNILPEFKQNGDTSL

| Structure (SMILES) | Ki [nM] |
| --- | --- |
| CC1(C)CN(c2ccccc2NC(=O)Nc2nc3ccc(Cl)cc3s2)c2c(O)cc(F)c(-c3nc4ccc(F)cc4s3)c21 | 90 |
| CC1(C)CN(c2ccccc2NC(=O)Nc2nc3ccc(F)cc3s2)c2c(O)cc(F)c(-c3nc4cc(Cl)ccc4s3)c21 | 48 |
| CC1(C)CN(c2ccccc2NC(=O)Nc2nc3ccc(F)cc3s2)c2c(O)ccc(-c3nc4ccc(Cl)cc4s3)c21 | 78 |
| CC1(C)CN(c2ccccc2NC(=O)Nc2nc3ccc(Cl)cc3s2)c2c(O)cc(F)c(-c3nc4cc(Cl)ccc4s3)c21 | 98 |
| CC1(C)CN(c2ccccc2NC(=O)Nc2nc3ccc(Cl)cc3s2)c2c(O)ccc(-c3nc4cc(F)ccc4s3)c21 | 17 |
| CC1(C)CN(c2ccccc2NC(=O)Nc2nc3ccc(Cl)nc3s2)c2c(O)cc(F)c(-c3nc4cc(Cl)ccc4s3)c21 | 39 |
| CC1(C)CN(c2ccccc2NC(=O)Nc2ccc(OC(F)(F)F)cc2)c2c(O)c(F)cc(-c3nc4cc(Cl)ccc4s3)c21 | 52 |

Compounds with a lower Ki, results first:

| Ki [nM] | Structure (SMILES) |
| --- | --- |
| 16 | CC1(C)CN(c2ccccc2NC(=O)Nc2nc3ccc(Cl)nc3s2)c2c(O)cc(F)c(-c3nc4ccc(F)cc4s3)c21 |
| 13 | CC1(C)CN(c2ccccc2NC(=O)Nc2ccc(OC(F)(F)F)cc2)c2c(O)ccc(-c3nc4ccc(Cl)cc4s3)c21 |
| 13 | CC1(C)CN(c2ccccc2NC(=O)Nc2ccc(OC(F)(F)F)cc2)c2c(O)ccc(-c3ccc(F)nc3)c21 |
| 9.5 | CC1(C)CN(c2ccccc2NC(=O)Nc2ccc(OC(F)(F)F)cc2)c2c(O)cc(F)c(-c3ccc(Cl)s3)c21 |
| 9.9 | COc1cncc(-c2ccc(O)c3c2C(C)(C)CN3c2ccccc2NC(=O)Nc2ccc(OC(F)(F)F)cc2)c1 |
| 8.2 | CC1(C)CN(c2ccccc2NC(=O)Nc2nc3ccc(Cl)nc3s2)c2c(O)cc(F)c(-c3ccc(Cl)s3)c21 |
| 13 | CC1(C)CN(c2ccccc2NC(=O)Nc2csc(Cl)n2)c2c(O)cc(F)c(-c3nc4cc(Cl)ccc4s3)c21 |
